Laboratory results: ChEMBL document CHEMBL4651402, “Screening of ~5500 FDA-approved drugs and clinical candidates for anti-SARS-CoV-2 activity” (2021)

How the values were obtained:
[1] = system: SARS-CoV-2; assay: microbe, parasite or virus in culture; assay type: functional, organism-based, Chlorocebus sabaeus, Vero C1008; conditions: Severe acute respiratory syndrome coronavirus 2, Vero C1008, 48 h
[2] = system: SARS-CoV-2; assay: microbe, parasite or virus in culture; conditions: Severe acute respiratory syndrome coronavirus 2, Vero C1008, 48 h
[3] = in vitro; conditions: chlorocebus sabaeus
[4] = Vero E6 (Vero C1008) cells, CC50
[5] = Vero E6 (Vero C1008) cells, pCC50

CC(CN1c2ccccc2Sc2ccccc21)N(C)C (stereo not drawn) [PROMETHAZINE]
IC50 ([1]; read-out: IC50): > 100 µM | IC50 ([1]; read-out: pIC50 (converted)): > 100 µM | IC50 [2]: 21.9 µM | IC50 ([2]; read-out: pIC50 (converted)): 21.9 µM | CC50 at 48 h [3, 4]: 33.1 µM | CC50 at 48 h [3, 5]: 33.1 µM

Nc1nc(Nc2ccc3c(c2)CC[C@@H](N2CCCC2)CC3)nn1-c1cc2c(nn1)-c1ccccc1CCC2 [BEMCENTINIB]
IC50 ([1]; read-out: IC50): > 50.1 µM | IC50 ([1]; read-out: pIC50 (converted)): > 50.1 µM | IC50 [2]: 1.78 µM | IC50 ([2]; read-out: pIC50 (converted)): 1.78 µM | CC50 at 48 h [3, 4]: 1.55 µM | CC50 at 48 h [3, 5]: 1.55 µM

CN1CCC(=C2c3ccccc3Oc3ccc(Cl)cc32)CC1 [CLOPIPAZAN]
IC50 ([1]; read-out: IC50): > 100 µM | IC50 ([1]; read-out: pIC50 (converted)): > 100 µM | IC50 [2]: > 20 µM | IC50 ([2]; read-out: pIC50 (converted)): > 20 µM | CC50 at 48 h [3, 4]: 15 µM | CC50 at 48 h [3, 5]: 14.8 µM

Oc1cc2c(cc1O)[C@H]1c3ccccc3CN[C@@H]1CC2 [DIHYDREXIDINE]
IC50 ([1]; read-out: IC50): > 100 µM | IC50 ([1]; read-out: pIC50 (converted)): > 100 µM | IC50 [2]: 7.94 µM | IC50 ([2]; read-out: pIC50 (converted)): 7.94 µM | CC50 at 48 h [3, 4]: 18.6 µM | CC50 at 48 h [3, 5]: 18.6 µM

CCN(CCO)CCC[C@H](C)Nc1ccnc2cc(Cl)ccc12
IC50 ([1]; read-out: IC50): ~18.8 µM | IC50 ([1]; read-out: pIC50 (converted)): ~18.6 µM | IC50 [2]: 12.7 µM | IC50 ([2]; read-out: pIC50 (converted)): 12.6 µM | CC50 at 48 h [3, 4]: > 50.1 µM | CC50 at 48 h [3, 5]: > 50.1 µM

Cc1cc2cc(Oc3ccnc(Nc4cccc(CS(=O)(=O)NCCN(C)C)c4)n3)ccc2[nH]1 [SURUFATINIB]
IC50 ([1]; read-out: IC50): > 50.1 µM | IC50 ([1]; read-out: pIC50 (converted)): > 50.1 µM | IC50 [2]: > 10 µM | IC50 ([2]; read-out: pIC50 (converted)): > 10 µM | CC50 at 48 h [3, 4]: 4.9 µM | CC50 at 48 h [3, 5]: 4.9 µM

CN1CCCC(n2nc(Cc3ccc(Cl)cc3)c3ccccc3c2=O)CC1 (stereo not drawn) [AZELASTINE]
IC50 ([1]; read-out: IC50): > 100 µM | IC50 ([1]; read-out: pIC50 (converted)): > 100 µM | IC50 [2]: 13.3 µM | IC50 ([2]; read-out: pIC50 (converted)): 13.2 µM | CC50 at 48 h [3, 4]: 17.8 µM | CC50 at 48 h [3, 5]: 17.8 µM

COc1cc2c(Oc3ccc4[nH]c(C)cc4c3F)ccnc2cc1OCC1(N)CC1 [CATEQUENTINIB]
IC50 ([1]; read-out: IC50): > 100 µM | IC50 ([1]; read-out: pIC50 (converted)): > 100 µM | IC50 [2]: > 100 µM | IC50 ([2]; read-out: pIC50 (converted)): > 100 µM | CC50 at 48 h [3, 4]: 5.25 µM | CC50 at 48 h [3, 5]: 5.25 µM

CNCC[C@@H](Oc1cccc2ccccc12)c1cccs1 [(R)-DULOXETINE]
IC50 ([1]; read-out: IC50): > 100 µM | IC50 ([1]; read-out: pIC50 (converted)): > 100 µM | IC50 [2]: 7.24 µM | IC50 ([2]; read-out: pIC50 (converted)): 7.24 µM | CC50 at 48 h ([3]; vero c1008, CC50): 16.2 µM | CC50 at 48 h ([3]; vero c1008, pCC50): 16.2 µM

Cc1ccc(C(=O)Oc2ccc(C(O)CNC(C)(C)C)cc2OC(=O)c2ccc(C)cc2)cc1 (stereo not drawn) [BITOLTEROL]
IC50 ([1]; read-out: IC50): > 100 µM | IC50 ([1]; read-out: pIC50 (converted)): > 100 µM | IC50 [2]: 8.13 µM | IC50 ([2]; read-out: pIC50 (converted)): 8.13 µM | CC50 at 48 h [3, 4]: 5.69 µM | CC50 at 48 h [3, 5]: 5.62 µM

COc1ccc2cc1Oc1ccc(cc1)C[C@H]1c3cc(c(OC)cc3CCN1C)Oc1c(OC)c(OC)cc3c1[C@H](C2)N(C)CC3 [FANCHININ]
IC50 ([1]; read-out: IC50): > 50.1 µM | IC50 ([1]; read-out: pIC50 (converted)): > 50.1 µM | IC50 [2]: 3.98 µM | IC50 ([2]; read-out: pIC50 (converted)): 3.98 µM | CC50 at 48 h [3, 4]: 5.17 µM | CC50 at 48 h [3, 5]: 5.13 µM

CNCC(O)CC12CCC(c3ccccc31)c1ccccc12 (stereo not drawn) [OXAPROTILINE]
IC50 ([1]; read-out: IC50): > 100 µM | IC50 ([1]; read-out: pIC50 (converted)): > 100 µM | IC50 [2]: > 100 µM | IC50 ([2]; read-out: pIC50 (converted)): > 100 µM | CC50 at 48 h [3, 4]: 28.2 µM | CC50 at 48 h [3, 5]: 28.2 µM

CCN(CC)Cc1ccc2cc(COC(=O)Nc3ccc(C(=O)NO)cc3)ccc2c1 [GIVINOSTAT]
IC50 ([1]; read-out: IC50): > 100 µM | IC50 ([1]; read-out: pIC50 (converted)): > 100 µM | IC50 [2]: 10.5 µM | IC50 ([2]; read-out: pIC50 (converted)): 10.5 µM | CC50 at 48 h [3, 4]: 0.767 µM | CC50 at 48 h [3, 5]: 0.759 µM

O=C(O)CCc1nc(-c2ccccc2)c(-c2ccccc2)o1 [OXAPROZIN]
IC50 ([1]; read-out: IC50): > 50.1 µM | IC50 ([1]; read-out: pIC50 (converted)): > 50.1 µM | IC50 [2]: 11.8 µM | IC50 ([2]; read-out: pIC50 (converted)): 11.7 µM | CC50 at 48 h [3, 4]: > 50.1 µM | CC50 at 48 h [3, 5]: > 50.1 µM

C#C[C@]1(O)CC[C@H]2[C@@H]3CCC4=CCCC[C@@H]4[C@H]3CC[C@@]21C [LYNESTRENOL]
IC50 ([1]; read-out: IC50): > 50.1 µM | IC50 ([1]; read-out: pIC50 (converted)): > 50.1 µM | IC50 [2]: > 50.1 µM | IC50 ([2]; read-out: pIC50 (converted)): > 50.1 µM | CC50 at 48 h [3, 4]: 10.5 µM | CC50 at 48 h [3, 5]: 10.5 µM

CC1(C)CCC(c2ccc(Cl)cc2)=C(CN2CCN(c3ccc(C(=O)NS(=O)(=O)c4ccc(N[C@H](CCN5CCOCC5)CSc5ccccc5)c(S(=O)(=O)C(F)(F)F)c4)cc3)CC2)C1 [NAVITOCLAX]
IC50 ([1]; read-out: IC50): > 100 µM | IC50 ([1]; read-out: pIC50 (converted)): > 100 µM | IC50 [2]: > 100 µM | IC50 ([2]; read-out: pIC50 (converted)): > 100 µM | CC50 at 48 h [3, 4]: 4.73 µM | CC50 at 48 h [3, 5]: 4.68 µM

CCn1cc(-c2ccnc3[nH]c(-c4cccc(CN(C)C)c4)cc23)c(-c2ccc(NC(=O)N(C)C)cc2)n1 [GSK-1070916]
IC50 ([1]; read-out: IC50): > 100 µM | IC50 ([1]; read-out: pIC50 (converted)): > 100 µM | IC50 [2]: > 100 µM | IC50 ([2]; read-out: pIC50 (converted)): > 100 µM | CC50 at 48 h [3, 4]: 9.33 µM | CC50 at 48 h [3, 5]: 9.33 µM

Cc1ccc(C(=O)Nc2ccc(CN3CCN(C)CC3)c(C(F)(F)F)c2)cc1C#Cc1cnc2cccnn12 [PONATINIB]
IC50 ([1]; read-out: IC50): > 100 µM | IC50 ([1]; read-out: pIC50 (converted)): > 100 µM | IC50 [2]: > 100 µM | IC50 ([2]; read-out: pIC50 (converted)): > 100 µM | CC50 at 48 h [3, 4]: 0.989 µM | CC50 at 48 h [3, 5]: 0.977 µM
